Results from the SangsterLogP compilation.

Experiment: method code SF-AS, from DOI: 10.2307/3575799, PMID: 7199747
Details: pH 7.4

Row | logD | Compound
1 | -0.64 | CC(=O)OCCN(CCOC(C)=O)C(=O)Cn1ccnc1[N+](=O)[O-]
2 | -0.77 | CC(=O)OCC(CNC(=O)Cn1ccnc1[N+](=O)[O-])OC(C)=O (stereo not given)
3 | -0.96 | CC(O)CN(CC(C)O)C(=O)Cn1ccnc1[N+](=O)[O-] (stereo not given)

Experiment: method code SF, from DOI: 10.2307/3575799, PMID: 7199747
Details: pH 7.4

Row | Compound | logD
4 | O=COCCN(CCOC=O)C(=O)Cn1ccnc1[N+](=O)[O-] | -1.66
5 | CCC(=O)OCCN(CCOC(=O)CC)C(=O)Cn1ccnc1[N+](=O)[O-] | 0.44

Continued, values first:

Row | logD | Compound
6 | -1.59 | O=C(Cn1ccnc1[N+](=O)[O-])N(CCO)CCO
7 | -1.64 | CC(C(=O)NCC(O)CO)n1ccnc1[N+](=O)[O-] (stereo not given)
8 | -1.16 | CC(C(=O)NCCO)n1ccnc1[N+](=O)[O-] (stereo not given)
9 | -1.22 | NC(=O)Cn1ccnc1[N+](=O)[O-]
10 | -1.77 | O=C(Cn1ccnc1[N+](=O)[O-])NC(CO)(CO)CO
